Data as given in patent US20200061076A1, “METHODS OF TREATING LEUKODYSTROPHIES” (Ramot at Tel-Aviv University Ltd., priority 2017, published 2020).

Key:
Mut astrocytes [1] = assay: Cell survival assay, Crystal violet staining, Mut astrocytes; format: cell-based, mouse; details: 24 hours, untreated cells set to 100%
Method: (§1) Cells were seeded on 96-wells plate at a density of 5000 cells per well. Astrocytes were seeded following coating with 0.001% PDL.

WT astrocytes = assay: Cell survival assay, Crystal violet staining, WT astrocytes; format: cell-based, mouse; details: 24 hours, untreated cells set to 100%
Method: as §1

Mut astrocytes [2] = assay: Survival under Tunicamycin-induced ER stress, Crystal Violet, astrocytes; format: cell-based, mouse; details: 20-50 μM, 50 ng/ml Tunicamycin last 22 hours (FIG. 19)
Method: WT and Mut astrocytes were treated or not for 24 hours with 20, 30 or 50 μM of the indicated Sig-1R binders in the presence of 50 ng/ml Tunicamycin (Tun) during the last 22 hours. Following, the cells were washed, fixated and stained with Crystal Violet (CV) followed by measurement of absorbance at 570 nm. Shown is % of CV staining relative to cells not treated with tunicamycin nor Sig-1R binder ±SEM of 3 independent experiments, *p<0.05.
as §1

[3] = test system: Mut MEFs (primary fibroblasts from Eif2b5 R132H/R132H mice); assay: Image-based single cell analysis of ROS level (cellROX); design: species or system mouse; details: 10 μM, 24 hours incubation, compared with WT level (FIG. 3)
Method: Mut MEFs were treated with the indicated compounds at 10 μM for 24 hours followed by staining with fluorogenic dyes and image-based single-cell analysis. Shown is average effect on ROS level from at least 3-independent experiments ±SEM. All values are statistically significant, p<0.02. The extreme SEM points of all values are below the 90% cut-off, therefore the actual average reduction is between 12% and 29%. […] Mut MEFs were incubated or not for 24 hours with 10 μM of the indicated compound, washed and stained with Crystal Violet. Shown is average absorbance at 570 nm normalized (%) to non-treated cells of 3 independent experiments ±SEM, * p=0.0003. […] Mut MEFs were incubated or not for 24 hours with 10 μM of the indicated compound, washed and stained with JC1 and Hoechst followed by image-based single-cell analysis. […]
To assay the compounds, cellROX, a reactive oxygen species (ROS) fluorescent detector and a preferred in-situ mitochondrial content detector, was used for single cell-based imaging analysis as detailed previously (Raini et al., 2017). […] Compounds toxicity was evaluated by testing cell survival following 24 hours incubation with 10 μM of each compound using crystal violet staining (FIG. 14B). […] The other 19 compounds were not toxic; therefore, maximal working concentrations tolerated by the cells were further evaluated (Table 3 hereinbelow).

Cc1cccc(OCCCCCN2CCOCC2)c1 [H8 (p8G5), 4-[5-(3-methylphenoxy)pentyl]morpholine]
Survival (%) ± SEM Mut astrocytes (Mut astrocytes [1]; 1 μM): 108 ± 0.6% | Survival (%) ± SEM Mut astrocytes (Mut astrocytes [1]; 10 μM): 93 ± 2.1% | Survival (%) ± SEM Mut astrocytes (Mut astrocytes [1]; 30 μM): 92 ± 1.6% | Survival (%) ± SEM WT astrocytes (WT astrocytes; 1 μM): 132 ± 10.7% | Survival (%) ± SEM WT astrocytes (WT astrocytes; 10 μM): 102 ± 3.8% | Survival (%) ± SEM WT astrocytes (WT astrocytes; 30 μM): 99 ± 3.2% | survival rate of Mut astrocytes under ER-stress conditions (Mut astrocytes [2]): increased the survival rate | level of ROS (CellROX) in Mut cells [3]: corrected the abnormal level of ROS
